Experimental data taken from ChEMBL document CHEMBL1134254, “Syntheses of certain 3-aryl-2-propenoates and evaluation of their cytotoxicity” (Bioorg Med Chem Lett, 2001).
Values after ≈ are worked out from the molar mass of the structure shown.

How the values were obtained:
B16 = test: Inhibitory concentration against B16 murine melanoma cell line; details: Mus musculus
A-431 = test: cells; details: Homo sapiens
Description: Inhibitory concentration required against A 431 human epidermoid carcinoma cell line

HCT-116 = test: cells; details: Homo sapiens
Description: Inhibitory concentration against HCT 116 human colon cancer cell line

SNB-19 = test: Inhibitory concentration required against SNB19 CNS cancer cell line; format: functional, cell-based; details: Homo sapiens
ACHN = test: Inhibitory concentration required against ACHN renal cancer cell line; details: Homo sapiens
DLD-1 = test: Inhibitory concentration required against DLD-1 colon cancer cell line; details: Homo sapiens
HCT-15 = test: Inhibitory concentration required against HCT 15 colon cancer cell line; details: Homo sapiens
HT-29 = test: Inhibitory concentration required against HT 29 colon cancer cell line; details: Homo sapiens
HCC 2998 = test: Inhibitory concentration required against HCC2998 colon cancer cell line; details: Homo sapiens
MCF7 = test: Inhibitory concentration required against MCF-7 breast cancer cell line; format: functional, cell-based; details: Homo sapiens
NCI-H23 = test: Inhibitory concentration required against NCI-H23 lung cancer cell line; details: Homo sapiens
PC-3 = test: Inhibitory concentration required against PC-3 prostate cancer cell line; details: Homo sapiens
SW-620 = test: Inhibitory concentration required against SW620 colon cancer cell line; details: Homo sapiens
UACC-62 = test: Inhibitory concentration required against UACC62 melanoma cell line; details: Homo sapiens
LOX IMVI = test: Inhibitory concentration required against LOX-IMVI melanoma cell line; details: Homo sapiens
A549 = test: cells; details: Homo sapiens
Description: Inhibitory concentration required against A 549 lung cancer cell line

MDA-MB-231 = test: cells; details: Homo sapiens
Description: Inhibitory concentration required against MDA-MB-231 breast cancer cell line

COLO 205 = test: cells; details: Homo sapiens
Description: Inhibitory concentration required against COLO 205 colon cancer cell line

| Compound | IC50 (B16) | IC50 (A-431) | IC50 (HCT-116) | also measured |
| --- | --- | --- | --- | --- |
| COC(=O)/C=C/c1cc(OC)ccc1OC | > 30 µg/mL | > 30 µg/mL | > 30 µg/mL | – |
| O=C1c2ccccc2C(=O)c2c(O)ccc(O)c21 [QUINIZARIN] | > 30 µg/mL | > 30 µg/mL | > 30 µg/mL | – |
| COc1cccc2c1C(=O)c1c(O)c3c(c(O)c1C2=O)C[C@@](O)(C(=O)CO)C[C@@H]3O[C@H]1C[C@H](N)[C@H](O)[C@H](C)O1 [DOXORUBICIN] | – | – | – | IC50 (SNB-19): 0.29 µg/mL (≈ 0.534 µM) |
| O=C(/C=C/c1ccc(O)c(O)c1)Nc1ccccc1 | 4.23 µg/mL (≈ 16.6 µM) | 5 µg/mL (≈ 19.6 µM) | 4.26 µg/mL (≈ 16.7 µM) | – |
| CCOC(=O)/C=C/c1cc(OC)c2c(c1OC)C(=O)c1ccccc1C2=O | > 30 µg/mL | > 30 µg/mL | > 30 µg/mL | – |
| O=C/C=C/c1ccc(O)c(O)c1 [CAFFEOYL ALDEHYDE] | > 30 µg/mL | > 30 µg/mL | > 30 µg/mL | – |
| COC(=O)/C=C/c1cc(O)c2c(c1O)C(=O)c1ccccc1C2=O | 0.18 µg/mL (≈ 0.555 µM) | 0.87 µg/mL (≈ 2.68 µM) | 0.65 µg/mL (≈ 2 µM) | IC50 (ACHN): 0.42 µg/mL (≈ 1.3 µM); IC50 (DLD-1): 0.89 µg/mL (≈ 2.74 µM); IC50 (HCT-15): 0.66 µg/mL (≈ 2.04 µM); IC50 (HT-29): 0.55 µg/mL (≈ 1.7 µM); IC50 (HCC 2998): 0.95 µg/mL (≈ 2.93 µM); IC50 (MCF7): 0.46 µg/mL (≈ 1.42 µM); IC50 (NCI-H23): 0.39 µg/mL (≈ 1.2 µM); IC50 (PC-3): 2.72 µg/mL (≈ 8.39 µM); IC50 (SNB-19): 0.69 µg/mL (≈ 2.13 µM); IC50 (SW-620): 0.45 µg/mL (≈ 1.39 µM); IC50 (UACC-62): 0.11 µg/mL (≈ 0.339 µM); IC50 (LOX IMVI): 0.09 µg/mL (≈ 0.278 µM); IC50 (A549): 1.13 µg/mL (≈ 3.48 µM); IC50 (MDA-MB-231): 0.74 µg/mL (≈ 2.28 µM); IC50 (COLO 205): 0.73 µg/mL (≈ 2.25 µM) |
| COC(=O)/C=C/c1cc(OC)c2c(c1OC)C(=O)c1ccccc1C2=O | > 30 µg/mL | > 30 µg/mL | > 30 µg/mL | – |
| CCOC(=O)/C=C/c1cc(O)c2c(c1O)C(=O)c1ccccc1C2=O | 0.32 µg/mL (≈ 0.946 µM) | 0.91 µg/mL (≈ 2.69 µM) | 0.71 µg/mL (≈ 2.1 µM) | – |
| COC(=O)/C=C/c1ccc2c(c1)OCO2 | > 30 µg/mL | > 30 µg/mL | > 30 µg/mL | – |
| COC(=O)/C=C/c1ccc(OC)c(OC)c1 | > 30 µg/mL | > 30 µg/mL | > 30 µg/mL | – |

Continued, in another order:

| IC50 (B16) | IC50 (A-431) | IC50 (HCT-116) | Compound | also measured |
| --- | --- | --- | --- | --- |
| 30.1 µg/mL (≈ 155 µM) | > 30 µg/mL | > 30 µg/mL | COC(=O)/C=C\c1cc(O)ccc1O | – |
| 2.96 µg/mL (≈ 15.2 µM) | 1.79 µg/mL (≈ 9.22 µM) | 3.01 µg/mL (≈ 15.5 µM) | COC(=O)/C=C/c1ccc(O)c(O)c1 [METHYLCAFFEATE] | – |
| 2.46 µg/mL (≈ 11.1 µM) | 1.89 µg/mL (≈ 8.5 µM) | 2.12 µg/mL (≈ 9.54 µM) | CCCOC(=O)/C=C/c1ccc(O)c(O)c1 | – |
| 1.75 µg/mL (≈ 8.4 µM) | 1.81 µg/mL (≈ 8.69 µM) | 1.99 µg/mL (≈ 9.56 µM) | CCOC(=O)/C=C/c1ccc(O)c(O)c1 [ETHYL CAFFEATE] | – |
| 25.9 µg/mL (≈ 124 µM) | > 30 µg/mL | 27.5 µg/mL (≈ 132 µM) | COC(=O)/C=C/c1ccc(OC)c(O)c1 | – |
| 0.12 µg/mL (≈ 0.618 µM) | 0.15 µg/mL (≈ 0.772 µM) | 0.17 µg/mL (≈ 0.875 µM) | COC(=O)/C=C/c1cc(O)ccc1O | IC50 (ACHN): 0.73 µg/mL (≈ 3.76 µM); IC50 (DLD-1): 0.68 µg/mL (≈ 3.5 µM); IC50 (HCT-15): 0.27 µg/mL (≈ 1.39 µM); IC50 (HT-29): 1.1 µg/mL (≈ 5.66 µM); IC50 (HCC 2998): 5.22 µg/mL (≈ 26.9 µM); IC50 (MCF7): 0.37 µg/mL (≈ 1.91 µM); IC50 (NCI-H23): 0.93 µg/mL (≈ 4.79 µM); IC50 (PC-3): 0.42 µg/mL (≈ 2.16 µM); IC50 (SNB-19): 2.59 µg/mL (≈ 13.3 µM); IC50 (SW-620): 0.39 µg/mL (≈ 2.01 µM); IC50 (UACC-62): 0.56 µg/mL (≈ 2.88 µM); IC50 (LOX IMVI): 0.28 µg/mL (≈ 1.44 µM); IC50 (A549): 7.81 µg/mL (≈ 40.2 µM); IC50 (MDA-MB-231): 0.82 µg/mL (≈ 4.22 µM); IC50 (COLO 205): 0.97 µg/mL (≈ 5 µM) |
| 4.43 µg/mL (≈ 22.6 µM) | 5 µg/mL (≈ 25.5 µM) | 4.59 µg/mL (≈ 23.4 µM) | COC(=O)CCc1cc(O)ccc1O | – |
